Here are results for 4 molecules from paper PMC10021017 (Journal of the American Chemical Society, 2023).

Test [1] addresses T1, HydB (HydABCTk, electron-bifurcating [FeFe]-hydrogenase) (Thermoanaerobacter kivui, UniProt A0A097ATG4).
T1 sequence (A0A097ATG4 1-630): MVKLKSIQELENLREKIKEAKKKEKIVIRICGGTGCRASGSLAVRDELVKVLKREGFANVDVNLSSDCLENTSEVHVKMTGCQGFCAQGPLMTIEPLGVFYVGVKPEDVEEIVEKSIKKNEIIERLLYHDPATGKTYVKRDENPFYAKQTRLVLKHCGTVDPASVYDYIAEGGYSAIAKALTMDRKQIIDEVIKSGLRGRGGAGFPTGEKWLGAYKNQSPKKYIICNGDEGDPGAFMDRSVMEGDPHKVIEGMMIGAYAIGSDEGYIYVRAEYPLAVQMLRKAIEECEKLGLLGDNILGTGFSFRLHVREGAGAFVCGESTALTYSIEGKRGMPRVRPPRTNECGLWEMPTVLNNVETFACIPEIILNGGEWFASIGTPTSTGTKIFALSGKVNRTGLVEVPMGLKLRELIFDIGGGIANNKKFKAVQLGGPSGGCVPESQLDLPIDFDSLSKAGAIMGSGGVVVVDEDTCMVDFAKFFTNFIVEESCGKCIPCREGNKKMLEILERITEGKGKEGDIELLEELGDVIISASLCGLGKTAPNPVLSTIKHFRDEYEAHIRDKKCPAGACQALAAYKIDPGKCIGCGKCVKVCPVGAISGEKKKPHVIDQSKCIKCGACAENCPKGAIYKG
T1 sequence (A0A097ATG3 1-571 partner): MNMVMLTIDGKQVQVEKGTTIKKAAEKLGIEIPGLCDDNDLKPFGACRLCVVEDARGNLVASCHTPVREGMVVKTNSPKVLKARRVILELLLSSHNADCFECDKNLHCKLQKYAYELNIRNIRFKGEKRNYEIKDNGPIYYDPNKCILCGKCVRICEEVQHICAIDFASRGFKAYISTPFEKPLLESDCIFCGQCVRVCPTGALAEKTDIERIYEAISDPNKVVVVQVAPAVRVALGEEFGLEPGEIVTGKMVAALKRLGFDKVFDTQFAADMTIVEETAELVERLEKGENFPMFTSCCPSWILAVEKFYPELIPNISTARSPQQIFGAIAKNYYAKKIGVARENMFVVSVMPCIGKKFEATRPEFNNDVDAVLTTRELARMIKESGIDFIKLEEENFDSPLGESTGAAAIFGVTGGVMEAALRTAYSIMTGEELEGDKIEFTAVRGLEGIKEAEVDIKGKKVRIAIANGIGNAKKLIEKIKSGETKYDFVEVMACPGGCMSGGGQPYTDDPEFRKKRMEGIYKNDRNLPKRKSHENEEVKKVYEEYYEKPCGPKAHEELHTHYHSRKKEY
T1 sequence (A0A097ATI0 1-170 partner): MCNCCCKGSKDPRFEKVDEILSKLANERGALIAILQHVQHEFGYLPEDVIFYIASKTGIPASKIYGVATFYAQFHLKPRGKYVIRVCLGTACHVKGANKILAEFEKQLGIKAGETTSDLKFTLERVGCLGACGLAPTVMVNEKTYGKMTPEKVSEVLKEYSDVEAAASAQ
The test can be described thus: cryoEM. Type of test: binding.

Test [2] deals with HydB (ΔB2-HydABCTk) (Thermoanaerobacter kivui, UniProt A0A097ATG4, C82G/C86G).
For test [3], the target named is HydABC heterotrimer (protomer) of the electron-bifurcating [FeFe]-hydrogenase from Thermoanaerobacter kivui (Thermoanaerobacter kivui). The test can be described thus: cryo-EM structure.
Test [4] concerns the target T2, HydB subunit of the electron-bifurcating [FeFe]-hydrogenase HydABC from Thermoanaerobacter kivui (Thermoanaerobacter kivui, UniProt A0A097ATG4 1-630).
T2 sequence: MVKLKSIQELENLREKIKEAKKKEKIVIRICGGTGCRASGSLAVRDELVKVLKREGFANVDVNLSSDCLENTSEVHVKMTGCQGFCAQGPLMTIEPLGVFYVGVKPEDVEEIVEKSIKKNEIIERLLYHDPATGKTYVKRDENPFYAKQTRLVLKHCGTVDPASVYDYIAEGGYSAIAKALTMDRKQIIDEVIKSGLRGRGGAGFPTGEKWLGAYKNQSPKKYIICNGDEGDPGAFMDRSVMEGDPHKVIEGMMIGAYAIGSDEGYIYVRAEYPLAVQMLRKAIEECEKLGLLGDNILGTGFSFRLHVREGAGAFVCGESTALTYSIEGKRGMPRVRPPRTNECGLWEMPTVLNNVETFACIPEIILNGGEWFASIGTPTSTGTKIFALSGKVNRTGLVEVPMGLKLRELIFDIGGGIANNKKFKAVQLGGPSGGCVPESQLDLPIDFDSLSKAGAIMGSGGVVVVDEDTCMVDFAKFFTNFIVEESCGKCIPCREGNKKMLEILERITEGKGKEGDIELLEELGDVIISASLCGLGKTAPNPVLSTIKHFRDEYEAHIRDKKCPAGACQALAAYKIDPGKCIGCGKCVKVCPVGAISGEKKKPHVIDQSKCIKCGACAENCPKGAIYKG
The test can be described thus: cryo-EM structure.

Turning to `Cc1cc2nc3c(=O)[nH]c(=O)nc-3n(C[C@H](O)[C@H](O)[C@H](O)COP(=O)(O)O)c2cc1C` [FMN], the “cryoEM (reduced 3.12 A; oxidized 3.49 A, 8BEW); TLC of bound flavin” value in test [1] was “modified Rossmann fold with four (instead of six) β-sheets that noncovalently bind the FMN cofactor in a solvent-accessible cavity”.

Molecule `NC(=O)c1ccc[n+]([C@@H]2O[C@H](COP(=O)(O)OP(=O)(O)OC[C@H]3O[C@@H](n4cnc5c(N)ncnc54)[C@H](OP(=O)(O)O)[C@@H]3O)[C@@H](O)[C@H]2O)c1` [NADP^+] had a Kd in test [2] of 65 to 71 µM.

As for “HydABC heterotrimer (protomer) of the electron-bifurcating [FeFe]-hydrogenase from Thermoanaerobacter kivui (from UniProt A0A097ATG4 1-630; A0A097ATI0 1-170) (complex)”, in test [3], the stoichiometry N was 2.

B1: HydC subunit of the electron-bifurcating [FeFe]-hydrogenase HydABC from Thermoanaerobacter kivui (natural protein)
chain: MCNCCCKGSKDPRFEKVDEILSKLANERGALIAILQHVQHEFGYLPEDVIFYIASKTGIPASKIYGVATFYAQFHLKPRGKYVIRVCLGTACHVKGANKILAEFEKQLGIKAGETTSDLKFTLERVGCLGACGLAPTVMVNEKTYGKMTPEKVSEVLKEYSDVEAAASAQ
For B1, the binding result in test [4] is “binds”.
